The results in this text go back to EP2308493A1, “AMELIORATING OR THERAPEUTIC AGENT FOR DYSLIPIDEMIA” (Mochida Pharmaceutical Co., Ltd., priority 2008, dated 2010).

Test [1] concerns high sucrose diet-fed hamster. The test is described as follows: Effectiveness in high sucrose diet-fed hamster (plasma lipid change rate). The format is in vivo, Syrian hamsters. To be noted: for Change rate Non-HDL Cho / Change rate TG / Change rate Total Cho: 14th day, versus control group. The procedure:
Pharmacological action of EPA-E and/or tocopherol nicotinate on plasma lipids was confirmed by using hamsters that had been fed high sucrose diet. 6 week old male Syrian hamsters (Japan SLC, Inc.) were allowed to freely take fish meal-less F-1 diet (F-1, Funabashi Farm) under 12 hour light-dark cycles at 23°C for 2 weeks, and then, high sucrose diet (D11511, Research Diet Inc.) for 2 weeks. 6 groups (each comprising 6 animals), namely, control group, EPA-E 300 group, EPA-E 1000 group, tocopherol nicotinate 1000 group (hereinafter referred to as TN1000 group), low dose combination group, and high dose combination group were set. During the feeding of the high sucrose diet, the EPA-E 300 group was administered with 300 mg/kg of EPA-E (Mochida Pharmaceutical Co.); the EPA-E 1000 group was administered with 1000 mg/kg of EPA-E; the TN1000 group was administered with 1000 mg/kg of tocopherol nicotinate (Wako Pure Chemical Industries, Ltd.); the low dose combination group was administered with 300 mg/kg of EPA-E and 1000 mg/kg of tocopherol nicotinate; and the high dose combination group was administered with 1000 mg/kg of EPA-E and 1000 mg/kg of tocopherol nicotinate after suspending in 5% aqueous solution of gum arabic. The control group was orally administered with 5% aqueous solution of gum arabic once a day. Blood was collected one day before the start of the administration and on the 14th day of the administration, and plasma was separated by centrifugation. Plasma TG, total Cho, and HDL Cho concentration were respectively measured using a biochemical analyzer (A0400, Olympus Corporation) and commercially available assay reagent (Wako Pure Chemical Industries, Ltd.). The nan-HDL Cho concentration (total Cho-HDL Cho) was also calculated. No statistically significant difference was found in the plasma lipid concentrations of various groups on the day before the start of the administration. The plasma TG, total Cho, and non-HDL Cho concentration of each group at 14th day of the drug administration was compared with the corresponding values of the control group, and change rate was calculated by the following equation: Change rate (%) = [{(lipid concentration of each group)-(lipid concentration of control group)}x100]/(lipid concentration of the control group) [formula] For the combination group, sum of the change rate of the EPA-E sole administration group and the change rate of the tocopherol nicotinate sole administration group is shown in Table 1 as the theoretical change rate of the combination group. When the change rate of the actual measurement was negative and the value was lower than the theoretical value, synergistic effect by the combined use in the lipid decrease was deemed to have been realized.

For test [2], the system named is lauric acid-induced peripheral arterial occlusive hypertriglyceridemia rat. The test can be described thus: Effectiveness in lauric acid-induced peripheral arterial occlusive hypertriglyceridemia rat (lesion score). The format is in vivo, Wister rats. To be noted: 2 weeks after the surgery; EPA-E 300 mg/kg or tocopherol nicotinate 100 mg/kg orally once a day; compared to control group. The procedure:
4 week old male Wister rats (Japan SLC, Inc.) are allowed to freely take high sucrose diet (AIN-76A, PURINA MILLS) for 4 weeks under 12 hour light-dark cycles at 23°C. 5 groups (each comprising 10 animals), namely, sham surgery group; control group, EPA-E group (EPA-E administration); tocopherol nicotinate group (tocopherol nicotinate administration); and combination group (EPA-E administration + tocopherol nicotinate administration) are set. During the feeding, the EPA-E group is administered with 300 mg/kg of EPA-E; the tocopherol nicotinate group is administered with 100 mg/kg of tocopherol nicotinate; and the combination group is administered with 300 mg/kg of EPA-E and 100 mg/kg of tocopherol nicotinate after suspending in 5% aqueous solution of gum arabic. The administration is conducted orally once a day. […] Progress of the lesion of the limbs on the peripheral side of the injection site is scored for wet gangrene and dry gangrene, and the lesion is visually inspected with naked eyes every day until 2 weeks after the surgery. Progress of the lesion is scored by the following criteria: • Score 0: no change, score 1: the lesion is limited to nail, score 2: the lesion is limited to finger, score 3: the lesion is expanded to footpad, and score 4: the lesion is expanded to lower limb.

The test system of test [3] is Cho diet rabbit. The test can be described thus: Effectiveness in Cho diet rabbit (plasma lipids, auricle skin temperature, platelet collagen aggregation). To be noted: HCD diet 12 weeks; EPA-E 1000 mg/kg or tocopherol nicotinate 300 mg/kg orally once a day; compared to control group. The format is in vivo, Japan white male rabbits. The text has this:
Pharmacological action of EPA-E and/or tocopherol nicotinate on plasma lipids, auricle skin temperature, and platelet aggregation is confirmed by using rabbits that have been fed with Cho diet (hereinafter referred to as "HCD diet") known to develop a dyslipidemia. Japan white male rabbits (Funabashi Farm) having a body weight of 2.7 to 3.3 kg are allowed to freely take 100 g/day of normal diet (F-1, Funabashi Farm) or HCD diet (RC-4 supplemented with 1% Cho, Oriental Yeast Co.,Ltd.) for 12 weeks under 12 hour light-dark cycles at 23°C. 5 groups (each comprising 10 animals), namely, normal group (normal diet feeding); control group (HCD diet feeding); EPA-E group (HCD diet feeding + EPA-E administration); tocopherol nicotinate group (HCD diet feeding + tocopherol nicotinate administration); and combination group (HCD diet feeding + EPA-E administration + tocopherol nicotinate administration) are set. During the feeding, the EPA-E group is administered with 1000 mg/kg of EPA-E; the tocopherol nicotinate group is administered with 300 mg/kg of tocopherol nicotinate; and the combination group is administered with 1000 mg/kg of EPA-E and […] of tocopherol nicotinate after suspending in 5% aqueous solution of gum arabic. The administration is conducted orally once a day. The normal group and the control group are orally administered with 5% aqueous solution of gum arabic once a day. At the start of the administration and after 12 weeks of feeding, auricle skin temperature is measured by thermography and blood is collected for plasma biochemical tests. Platelet collagen aggregation is also checked after 12 weeks of feeding by measuring absorbance.

Test [4] has as its system hypertriglyceridemia rat. The test can be described thus: Effectiveness in hypertriglyceridemia rat. The format is in vivo, Zucker Diabetic Fatty rat. To be noted: 4 weeks; EPA-E 300 mg/kg or tocopherol nicotinate 100 mg/kg orally once a day as emulsion; compared to control group. As for the experimental part: 6 week old male Zucker Diabetic Fatty rat (Charles River Japan) are allowed to freely take diabetes-inducing diet (Purina 5008 (crude protein content, 23.5%; crude lipid content, 6.5%)) under 12 hour light-dark cycles at 23°C. 4 groups (each comprising 10 animals), namely, control group; EPA-E group (EPA-E administration); tocopherol nicotinate group (tocopherol nicotinate administration); and combination group (EPA-E administration + tocopherol nicotinate administration) are set. During the feeding, the EPA-E group is administered with 300 mg/kg of EPA-E; the tocopherol nicotinate group is administered with 100 mg/kg of tocopherol nicotinate; and the combination group is administered with 300 mg/kg of EPA-E and 100 mg/kg of tocopherol nicotinate. The administration is conducted orally once a day. The drugs are administered by preparing an emulsion preparation according to Preparation Example 8. The control group is orally administered with base of the emulsion preparation of Preparation Example 8 once a day. At the start of the administration and after 4 weeks of feeding, auricle skin temperature is measured by thermography and blood is collected for plasma biochemical test.

Each structure is given as a SMILES string.

Regarding `CC/C=C\C/C=C\C/C=C\C/C=C\C/C=C\CCCC(=O)OCC` [EPA-E, Ethyl icosapentaenoate], in test [1] (300 mg/kg orally), the “Change rate Non-HDL Cho” value is recorded as 14.8%, the “Change rate TG” value came to 2.7% and the “Change rate Total Cho” value was 11.1%. For the same compound, in test [1] (1000 mg/kg orally), the “Change rate Non-HDL Cho” value amounted to 11.1%, the “Change rate TG” value is 19.6% and the “Change rate Total Cho” value was found to be 2.7%.
On to `Cc1c(C)c2c(c(C)c1OC(=O)c1cccnc1)CCC(C)(CCCC(C)CCCC(C)CCCC(C)C)O2` (centres unmarked) [tocopherol nicotinate], for which, in test [1] (1000 mg/kg orally), the “Change rate Non-HDL Cho” value is listed as -11.6%, the “Change rate TG” value was -23.3% and the “Change rate Total Cho” value was -3.7%. The “lipid reducing action (plasma TG, total Cho, non-HDL Cho)” value in test [1] (high sucrose diet, 14 days oral administration) is “the action of reducing the TG and non-HDL Cho was found”. In addition, in test [2], the “score of progress of the lesion (wet and dry gangrene, 0-4)” value is on record as “improved scores”. In test [3], the “decrease of the auricle skin temperature” value is “also suppressed”, the “enhancement of the platelet collagen aggregation” value was “also suppressed”, the “plasma TG concentration” value was “suppressed increase” and the “plasma total Cho concentration” value is “suppressed increase”. In addition, in test [4], the “plasma TG concentration” value is “suppressed increase” and the “plasma free fatty acid concentration” value is “suppressed increase”.
